# Measurements published in patent US9012435B2, “Glucocorticoids attached to nitrate esters via an aromatic linker in position 21 and their use in ophthalmology” (Nicox S.A., priority 2008, dated 2015).
# Read-outs that look alike come from different tables or passages of the source.
# Columns and labels:
# [1] = tested on: isolated rabbit thoracic aorta preparations; test: Assay on vascular tone (vasorelaxation of methoxamine-precontracted aortic rings); conditions: for EC50: Oryctolagus cuniculus, read-out: EC50 (concentration producing 50% of the maximum relaxation)
# Method: The ability of the compounds of the invention to induce vasorelaxation in comparison to precursor compounds was tested in vitro in isolated rabbit thoracic aorta preparations (Wanstall J. C. et al., Br. J. Pharmacol., 134:463-472, 2001). Male New Zealand rabbits (1,8-2 Kg) were used. The animals were anaesthetized with sodium thiopental (50 mg/kg, iv), sacrificed by exsanguinations and then the thorax was opened and the aorta dissected. The aortas were placed immediately in Krebs-HEPES buffer (pH 7.4; composition mM: NaCl 130.0, Kcl 3.7, […] 14.9, KH2PO4 1.2, MgSO4.7H2O 1.2, Glucose 11.0, HEPES 10.0, CaCl2.2H2O 1.6) and cut into ring segments (4-5 mm in length). Each ring was placed in a 5 ml tissue bath filled with Krebs-HEPES buffer (37° C.) aerated with 95% O2 and 5% CO2 and was then attached to a force transducer (Grass FT03), connected to a BIOPAC MP150 System for measurement of the isometric tension^2. The preparations were allowed to equilibrate for 1 h at a resting tension of 2 g with changes of the buffer every 15 minutes and then stimulated by exposure to 90 mM KCl (3 times) with intervening washings. After equilibration, the rings were precontracted submaximally with methoxamine (3 μM) and, when the contraction reach a steady state a cumulative concentration-response curve to the test compounds was obtained. The time intervals between doses were based on the time needed to reach a full a steady state response.
# Responses to test compounds were expressed as a percentage of residual contraction and plotted against concentration of test compound. EC50 values (where EC50 is the concentration producing 50% of the maximum relaxation to the test compound) were interpolated from these plots.
# Brown Norway rats = test: Steroid-induced intraocular pressure (IOP) elevation in rats after intravitreal injection; conditions: 39.1 μg/eye (25 μg/eye equivalent) intravitreal
# Excerpt: Male Brown Norway rats (250-275 g; Charles River laboratory) were acclimated for a week before IOP measurements. Baseline IOP measurements with Tonolab Tonometer (Tiolat Inc) were done in conscious rats (Pease, M. E., et al J. Glaucoma, 15:512-519, 2006) before intravitreal injection of test compounds. Then the rats were anesthetized with isoflurane inhalation and a drop of 0.5% tetracaine was topically applied on the eyes. Pupils were dilated with 1% topical cyclopentolate hydrochloride and 2.5% phenylephrine HCl to see the needle to aim the intravitreal injection of test compounds. […] For example, to compare to fluocinolone acetonide at both 25 and 50 μg/eye, compound (1) was dosed at 42.4 and 84.7 μg/eye, respectively. The des-nitro analog of compound (1) was dosed at 39.1 μg/eye (equivalent for 25 μg FC). Control animals received vehicle.
# Five measurements were averaged for each time point. IOP measurements were taken at one and two weeks after intravitreal injection of test compounds.
# [2] = tested on: VEGF-induced leakage rat model; test: VEGF-induced retinal vascular leakage rat model (Evans blue); format: in vivo; conditions: VEGF 100 ng/eye
# Method: Pupils were dilated with 1% topical cyclopentolate hydrochloride to see the needle to guide the intravitreal injection. Recombinant rat vascular endothelial growth factor (VEGF; 100 ng/eye) or VEGF at 100 ng/eye plus test compounds were prepared in 0.5% carboxymethyl cellulose (CMC) in sterile saline and was injected into the vitreous with a 30-gauge needle (Xu, Q., et al. Invest. Ophthalmol. Vis. Sci., 42:789-794, 2001). The compounds of the invention were compared to corresponding steroid cores at equimolar doses. […] Control animals received vehicle. Compound (18) was similarly dosed alongside triamcinolone acetonide for comparison.
# Retinal vascular leakage was measured as described previously (Xu, Q., et al. Invest. Ophthalmol. Vis. Sci., 42:789-794, 2001). After about 18 hours post injection of test compounds, rats were anesthetized with ketamine (80 mg/kg) and xylazine (4 mg/kg) IP. Then 45 mg/kg Evans blue (EB) was injected into the jugular vein. The dye was allowed to circulate for 2 hours. The chest cavity was opened and rats then perfused with 1% formalin in 0.5 M citrate buffer (pH 3.5, 37° C.) through the left ventricle. Retinas were carefully dissected from enucleated eyes, placed in pre-weighed Eppendorf tubes, dried in speed vacuum overnight and dry weights recorded. Evans blue was extracted by incubating each retina in 120 μl formamide for 18 hours at 70° C., centrifuged for 2 hours at 6000 rpm. Absorbance of 60 μl of extract was measured at 620 nm and background absorbance was determined at 740 nm. Net absorbance was calculated by subtracting the background 740 nm from that at 620 nm. Measurement of a standard curve of Evans blue in formamide was also done and Evans blue leakage expressed as μl/g/h was calculated as shown below: [EB(ng/ml)×120 (μl)×1000]/[dry weight retina (mg)×circulation time (h)×plasma EB(ng/ml)×100]
# retinal tissue = test: Retina protection: morphological analysis, ET-1 induced ischemia; format: in vivo, rabbit; conditions: long term ET-1 treatment; 0.5 mg (equivalent)/eye IVT
# Method: The eyes of each animal was enucleated, cornea and crystalline were removed and the eyes was paraformaldehyde-fixed. Then samples were dehydrated with increasing alcohol concentration (50°-75°-95°-100°). After 95° alcohol treatment, the eyes were divided into two parts following a longitudinal plain from cornea to insertion of optical nerve. Thus the samples were paraffin-embedded. Section 8 μm thick were stained with Haematoxylin-Eosin. Microscopical fields were registered by digitizing camera applied a light microscope with a 20× and 40× objective. On the digitized images was performed a morphological analysis of retinal tissue.
# TNFα = TNFα content in aqueous humor (ELISA), ET-1 induced ischemia; format: in vivo, rabbit; conditions: ET-1 treated rabbits; 0.5 mg (equivalent)/eye IVT
# Method: (§1) Aqueous humor samples were withdrawn from both anterior and posterior chamber fluids of each eye before ET-1 administration (T0), before the administration of Compound (1) or fluorocinolone acetonide (T2), and at the end of treatments (T6). The same volume of saline were reintroduced every time. The aqueous humor samples were immediately frozen at −80° C. until use.
# (§2) Tumor necrosis factor (TNFα) and interleukin 6 (IL-6) were determined in aqueous humor with a commercial kit using an ELISA method (Amersham Pharmacia Biotech). The minimum detectable concentrations were 0.10 pg/ml for IL-6 and TNFα. The interassay coefficient of variation was 0.7% for all assays.
# ophthalmic artery = test: Ocular haemodynamics (Color Doppler Imaging, Pourcelot Resistance Index) in ET-1 induced ischemia; format: in vivo, rabbit
# Method: Haemodynamic evaluations were performed using an eco-color-doppler DynaView TM II SSD-1700 (Aloka Holding Europe AG, Milan, Italy). All animals underwent Color Doppler Imaging (CDI) investigation before ET-1 injection (T0), before the start of drug instillation (T2) and at the end of the drug treatment (T6). Special attention was devoted to the evaluation of ophthalmic and ciliary artery circulation. Blood flow velocities were measured for each vessel and the Pourcelot Resistance Index (RI) was calculated (Galassi F. et al., Acta Opht. Scand Suppl. (2000) 37-38).
# IL-6 = IL-6 content in aqueous humor (ELISA), ET-1 induced ischemia; format: in vivo, rabbit; conditions: ET-1 treated rabbits; 0.5 mg (equivalent)/eye IVT
# Method: as §1, §2
# VEGF = VEGF content in aqueous humor, ET-1 induced ischemia; format: in vivo, rabbit; conditions: ET-1 treated rabbits; 0.5 mg (equivalent)/eye IVT
# [3] = rabbit aortic rings precontracted with methoxamine 3 μM
smiles,measurement,setting,value
"CC1(C)O[C@@H]2CC3C4CCC5=CC(=O)C=C[C@]5(C)[C@@]4(F)[C@@H](O)C[C@]3(C)[C@]2(C(=O)COC(=O)Oc2cc(C(=O)OCCCCO[N+](=O)[O-])cc(O)c2O)O1 (stereo partly drawn) [Compound (10), 4-(nitrooxy)butyl 3-((2-((9R,10S,11S,13S,16R,17S)-9-fluoro-11-hydroxy-16,17-((1-methylethylidene)bis(oxy))-10,13-dimethyl-3-oxo-6,7,8,9,10,11,12,13,14,15,16,17-dodecahydro-3H-cyclopenta[a]phenanthren-17-yl)-2-oxoethoxy)carbonyloxy)-4,5-dihydroxybenzoate]",EC50,[1]; [3],2350 ± 980 nM
"CCCCOC(=O)c1ccc(OC(=O)OCC(=O)C23OC(C)(C)OC2CC2C4CC(F)C5=CC(=O)C=CC5(C)C4(F)C(O)CC23C)c(OC)c1 [des-nitro analog of compound (1), Butyl 4-((2-((6S,9R,10S,11S,13S,16R,17S)-6,9-difluoro-11-hydroxy-16,17-16,17-(1-methylethylidenebis(oxy))-10,13-dimethyl-3-oxo-6,7,8,9,10,11,12,13,14,15,16,17-dodecahydro-3H-cyclopenta[a]phenanthren-17-yl)-2-oxoethoxy)carbonyloxy)-3-methoxybenzoate]",IOP compared to compound (1) at 42.4 μg/eye (FIG. 4),Brown Norway rats,increase in IOP
"COc1cc(C(=O)OCCOCCOCCO[N+](=O)[O-])ccc1OC(=O)OCC(=O)[C@@]12OC(C)(C)O[C@@H]1CC1C3C[C@H](F)C4=CC(=O)C=C[C@]4(C)[C@@]3(F)[C@@H](O)C[C@@]12C (stereo partly drawn) [Compound (5), 2-(2-(2-(nitrooxy)ethoxy)ethoxy)ethyl 4-((2-((6S,9R,10S,11S,13S,16R,17S)-6,9-difluoro-11-hydroxy-16,17-((1-methylethylidene)bis(oxy))-10,13-dimethyl-3-oxo-6,7,8,9,10,11,12,13,14,15,16,17-dodecahydro-3H-cyclopenta[a]phenanthren-17-yl)-2-oxoethoxy)carbonyloxy)-3-methoxybenzoate]",EC50,[1]; [3],830 ± 250 nM
"CC1(C)O[C@@H]2CC3C4C[C@H](F)C5=CC(=O)C=C[C@]5(C)[C@@]4(F)[C@@H](O)C[C@]3(C)[C@]2(C(=O)COC(=O)Oc2cc(C(=O)OCCCCO[N+](=O)[O-])cc(O)c2O)O1 (stereo partly drawn) [Compound (6), 4-(nitrooxy)butyl 3-((2-((6S,9R,10S,11S,13S,16R,17S)-6,9-difluoro-11-hydroxy-16,17-((1-methylethylidene)bis(oxy))-10,13-dimethyl-3-oxo-6,7,8,9,10,11,12,13,14,15,16,17-dodecahydro-3H-cyclopenta[a]phenanthren-17-yl)-2-oxoethoxy)carbonyloxy)-4,5-dihydroxybenzoate]",EC50,[1]; [3],1440 ± 410 nM
"COc1cc(C(=O)OCCCCC(CO[N+](=O)[O-])O[N+](=O)[O-])ccc1OC(=O)OCC(=O)[C@@]12OC(C)(C)O[C@@H]1CC1C3C[C@H](F)C4=CC(=O)C=C[C@]4(C)[C@@]3(F)[C@@H](O)C[C@@]12C (stereo partly drawn) [Compound (3), 5,6-bis(nitrooxy)hexyl 4-((2-((6S,9R,10S,11S,13S,16R,17S)-6,9-difluoro-11-hydroxy-16,17-((1-methylethylidene)bis(oxy))-10,13-dimethyl-3-oxo-6,7,8,9,10,11,12,13,14,15,16,17-dodecahydro-3H-cyclopenta[a]phenanthren-17-yl)-2-oxoethoxy)carbonyloxy)-3-methoxybenzoate]",EC50,[1]; [3],210 ± 70 nM
"CC1(C)O[C@@H]2C[C@H]3[C@@H]4CCC5=CC(=O)C=C[C@]5(C)[C@@]4(F)[C@@H](O)C[C@]3(C)[C@]2(C(=O)CO)O1 [TAAC, Triamcinolone acetonide]",reduction of VEGF-induced leakage,[2]; 10 μg/eye intravitreal,67.5%
same,EC50 (concentration producing 50% of the maximum relaxation),[1]; [3],no effect
"COc1cc(C(=O)OCCCCO[N+](=O)[O-])ccc1OC(=O)OCC(=O)[C@@]12OC(C)(C)O[C@@H]1CC1C3CCC4=CC(=O)C=C[C@]4(C)[C@@]3(F)[C@@H](O)C[C@@]12C (stereo partly drawn) [Compound (18), 4-(nitrooxy)butyl 4-((2-((9R,10S,11S,13S,16R,17S)-9-fluoro-11-hydroxy-16,17-(1-methylethylidenebis(oxy))-10,13-dimethyl-3-oxo-6,7,8,9,10,11,12,13,14,15,16,17-dodecahydro-3H-cyclopenta[a]phenanthren-17-yl)-2-oxoethoxy)carbonyloxy)-3-methoxybenzoate]",reduction of VEGF-induced leakage,"[2]; dose equivalent to 10 μg/eye triamcinolone acetonide, intravitreal",54.3%
same,EC50,[1]; [3],1560 nM
"COc1cc(C(=O)OCCCCO[N+](=O)[O-])ccc1OC(=O)OCC(=O)[C@@]12OC(C)(C)O[C@@H]1CC1C3C[C@H](F)C4=CC(=O)C=C[C@]4(C)[C@@]3(F)[C@@H](O)C[C@@]12C (stereo partly drawn) [Compound (1), 4-(nitrooxy)butyl 4-((2-((6S,9R,10S,11S,13S,16R,17S)-6,9-difluoro-11-hydroxy-16,17-16,17-(1-methylethylidenebis(oxy))-10,13-dimethyl-3-oxo-6,7,8,9,10,11,12,13,14,15,16,17-dodecahydro-3H-cyclopenta[a]phenanthren-17-yl)-2-oxoethoxy)carbonyloxy)-3-methoxybenzoate]",ET-1 induced morphological changes of retinal tissue,retinal tissue,not equally present
same,TNFα content in aqueous humor,TNFα,18.93 ± 0.98 pg/mL
same,inhibition of VEGF-induced leakage,"[2]; 42.4 μg/eye intravitreal (equimolar to 25 μg/eye FC), 18 hours after injection",77.1%
same,Resistence Index,"ophthalmic artery; After 2 weeks (before drug instillation, T2)",0.43 ± 0.08
same,Resistence Index,"ophthalmic artery; After 6 weeks (end of drug treatment), 0.5 mg (equivalent)/eye IVT",0.41 ± 0.03
same,Resistence Index,ophthalmic artery; Basal,0.43 ± 0.06
same,IL6 content in aqueous humor,IL-6,15.70 ± 1.73 pg/mL
same,EC50,[1],2200 nM
same,VEGF content in aqueous humor,VEGF,105.79 ± 1.98 pg/mL
